# Like-named read-outs stand apart in the source and are kept apart here.
# Molecular target: T1, Human Recombinant Matriptase 2 (Homo sapiens, UniProt Q8IU80)
# T1 construct: purchased Enzo Life Sciences (an in-house preparation was also used) ALX-201-752-1
# T1 sequence (Q8IU80 1-811): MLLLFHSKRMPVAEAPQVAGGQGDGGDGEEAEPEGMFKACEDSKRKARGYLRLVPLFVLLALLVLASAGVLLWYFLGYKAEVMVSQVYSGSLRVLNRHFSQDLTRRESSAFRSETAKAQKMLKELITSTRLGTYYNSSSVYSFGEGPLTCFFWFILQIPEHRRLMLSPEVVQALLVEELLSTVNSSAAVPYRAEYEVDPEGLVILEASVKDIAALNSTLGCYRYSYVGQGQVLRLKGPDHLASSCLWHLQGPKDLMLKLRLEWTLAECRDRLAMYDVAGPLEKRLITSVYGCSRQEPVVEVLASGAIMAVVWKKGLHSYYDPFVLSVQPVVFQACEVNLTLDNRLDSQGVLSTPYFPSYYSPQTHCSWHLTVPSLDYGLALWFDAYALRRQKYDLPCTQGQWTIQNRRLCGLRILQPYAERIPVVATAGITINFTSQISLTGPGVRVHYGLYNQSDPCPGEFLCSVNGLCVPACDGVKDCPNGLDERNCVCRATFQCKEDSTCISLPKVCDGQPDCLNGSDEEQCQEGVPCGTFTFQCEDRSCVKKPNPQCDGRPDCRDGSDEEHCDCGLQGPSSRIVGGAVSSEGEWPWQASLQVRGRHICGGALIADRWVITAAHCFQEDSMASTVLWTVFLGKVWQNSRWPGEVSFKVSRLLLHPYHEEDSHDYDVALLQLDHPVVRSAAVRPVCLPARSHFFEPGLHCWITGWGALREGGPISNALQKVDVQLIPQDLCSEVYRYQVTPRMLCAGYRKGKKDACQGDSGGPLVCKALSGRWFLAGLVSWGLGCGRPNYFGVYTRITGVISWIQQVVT
# Assay: Matriptase 2 fluorescence based inhibition assay, Method A (100 mM TRIS pH 9, 1 mg/mL BSA)
# Format: biochemical
# Conditions: read-out: Mar-2 % inhibition at 1 uM
# Description: Test compounds were evaluated for their potential to inhibit Human Recombinant Matriptase 2 (in-house and commercial protein from Enzo Life Sciences—cat log -ALX-201-752-1) using fluorescence based assay. The concentration of Recombinant Matriptase 2 and the substrate used in the assay was: 7 nM (commercial) and 15 nM (Inhouse Matriptase 2) and 100 μM (Boc-Gln-Ala-Arg-7-amido-4-methyl coumarin hydrobromide—Cat log: B4153-Sigma) respectively. The assay buffer used was 100 mM TRIS pH 9, 1 mg/mL BSA. The assay was performed using 384 well black flat bottom plate from grenier (Cat log: 781076) at 25° C. The enzyme and compound was preincubated for 30 mins, plate was read 60 mins after substrate addition at wavelength Ex: 360/Em: 480 nm. The final assay volume was 20 μl. Stock solution of compounds were initially prepared in DMSO and appropriate dilutions were made for screening and IC50 determination (final DMSO conc in the assay was 1%). All the measurements were carried out using the Spectramax M5, Molecular devices. The compounds were screened at 1 and 10 μM concentration and IC50 was determined for the interested compounds.
# To determine IC50 values, dose response curves were generated by plotting percentage inhibition as a function of inhibitor concentration and the data was fitted to sigmoidal non-linear regression equation (variable slope) using Graph Pad prism software V7.
SMILES,"inhibition at 1 µM (at 1 uM, Assay Used = A) [%]","inhibition at 1 µM (1 uM, Assay Used A) [%]",further results
"N=C(N)c1ccc2cc(C(=O)N[C@H]3CC[C@H](N)CC3)n(Cc3cccc(C(=O)NCCC(=O)O)c3)c2c1 [Compound I-259, 3-(3-((2-(((1r,4r)-4-Amiocyclohexyl)carbamoyl)-6-carbamimidoyl-1H-indol-1-yl)methyl)benzamido)propanoic Acid]",25 to 50,,
N=C(N)c1ccc2cc(C(=O)Nc3ccc(C(F)(F)F)cc3)n(Cc3ccc(C(N)=O)cc3)c2c1 [Compound I-61],,0 to 25,
N=C(N)c1ccc2cc(C(=O)Nc3ccc(C(=O)N4CC[C@H](F)C4)cc3)n(Cc3ccc(C(N)=O)cc3)c2c1 [Compound I-106],,0 to 25,
N=C(N)c1ccc2cc(C(=O)Nc3ccc(N4CC[C@@H](F)C4)cc3)n(Cc3ccc(C(N)=O)cc3)c2c1 [Compound I-127],,25 to 50,
"NC(=O)c1ccc(Cn2c(C(=O)Nc3cccc(N4CCCC4)c3)cc3ccc(/C(N)=N/O)cc32)cc1 [Compound I-267, 1-(4-Carbamoylbenzyl)-6-(N′-hydroxycarbamimidoyl)-N-(3-(pyrrolidin-1-yl)phenyl)-1H-indole-2-carboxamide]",0 to 25,,
N=C(N)c1ccc2cc(C(=O)Nc3cccc(C(F)(F)F)c3)n(Cc3ccc(C(N)=O)cc3)c2c1 [Compound I-60],,0 to 25,
CC1CCN(C(=O)c2cc3ccc(C(=N)N)cc3n2CCS(=O)(=O)c2ccccc2)CC1 [Compound I-340],0 to 25,,
N=C(N)c1ccc2cc(C(=O)Nc3ccc(N4CCCCC4)cc3)n(Cc3ccc(C(N)=O)cc3)c2c1 [Compound I-102],,0 to 25,
CC(C)(O)[C@@H](NC(=O)c1cc2ccc(C(=N)N)cc2n1Cc1ccc(C(N)=O)cc1)c1ccccc1 [Compound I-125],,25 to 50,
"CC(C)CCn1c(C(=O)N2CCC(F)CC2)cc2ccc(C(=N)N)cc21 [Compound I-270, 2-(4-Fluoropiperidine-1-carbonyl)-1-isopentyl-1H-indole-6-carboximidamide]",0 to 25,,
N=C(N)c1ccc2cc(C(=O)N[C@H]3CC[C@H](N)CC3)n(CCc3ccc(F)cc3)c2c1 [Compound I-30],,25 to 50,
"N=C(N)c1ccc2cc(C(=O)NCC3CCCCC3)n(Cc3ccc(C(N)=O)c(Cl)c3)c2c1 [Compound I-229, 6-Carbamimidoyl-1-(3-Chloro-4-carbamoyl-benzyl)-N-(cyclohexylmethyl)-1H-indole-2-carboxamide]",0 to 25,,
"CCNC(=O)c1ccc(Cn2c(C(=O)N3CCC(F)(F)C3)cc3ccc(C(=N)N)cc32)cc1 [Compound I-385, 4-((6-Carbamimidoyl-2-(3,3-difluoropyrrolidine-1-carbonyl)-1H-indol-1-yl)methyl)-N-ethylbenzamide]",0 to 25,,
"NC(=O)c1ccc(Cn2c(C(=O)Nc3ccc(N4CCCC4)cc3)cc3ccc(/C(N)=N/O)cc32)cc1 [Compound I-268, 1-(4-Carbamoylbenzyl)-6-(N′-hydroxycarbamimidoyl)-N-(4-(pyrrolidin-1-yl)phenyl)-1H-indole-2-carboxamide]",0 to 25,,
N=C(N)c1ccc2cc(C(=O)Nc3ccc4c(c3)CCC4)n(Cc3ccc(C(N)=O)cc3)c2c1 [Compound I-64],,0 to 25,
N=C(N)c1ccc2cc(C(=O)N3CCc4ccccc4C3)n(Cc3ccc(-c4ccccc4)cc3)c2c1 [Compound I-311],0 to 25,,
"CN(C)C(=O)c1ccc(Cn2c(C(=O)NCC3CCCCC3)cc3ccc(C(=N)N)cc32)cc1 [Compound I-216, 6-Carbamimidoyl-N-(cyclohexylmethyl)-1-(4-(dimethylcarbamoyl)benzyl)-1H-indole-2-carboxamide]",0 to 25,,
"CC(C)CCn1c(C(=O)N2CCC(CCN)CC2)c(N)c2ccc(C(=N)N)cc21 [Compound I-345, 3-Amino-2-(4-(2-aminoethyl)piperidine-1-carbonyl)-1-isopentyl-1H-indole-6-carboximidamide]",25 to 50,,
C=CCOc1cccc(NC(=O)c2cc3ccc(C(=N)N)cc3n2Cc2ccc(C(N)=O)cc2)c1 [Compound I-139],,0 to 25,
"N=C(N)c1ccc2cc(C(=O)N[C@H]3CC[C@H](N)CC3)n(Cc3cccc(N)c3)c2c1 [Compound I-256, 1-(3-Aminobenzyl)-N-((1r,4r)-4-aminocyclohexyl)-6-carbamimidoyl-1H-indole-2-carboxamide]",25 to 50,,
COc1ccc2cc(Cn3c(C(=O)N[C@H]4CC[C@H](N)CC4)cc4ccc(C(=N)N)cc43)ccc2c1 [Compound I-408],,,"inhibition at 1 µM (1 uM compound, Assay Used = A): 50 to 75%"

SMILES,"inhibition at 1 µM (at 1 uM, Assay Used = A) [%]","inhibition at 1 µM (1 uM, Assay Used A) [%]",further results
N=C(N)c1ccc2cc(C(=O)NCC3CCC(O)CC3)n(CCS(=O)(=O)c3ccccc3)c2c1 (stereo not drawn) [Compound I-52],,0 to 25,
N=C(N)c1ccc2cc(C(=O)N[C@H]3CC[C@H](N)CC3)n(Cc3ccc(Oc4ccc(Cl)cc4)cc3)c2c1 [Compound I-247],50 to 75,,
N=C(N)c1ccc2cc(C(=O)N3CCC(F)(F)CC3)n(Cc3ccc(NC(=O)CCN)cc3)c2c1 [Compound I-374],0 to 25,,
N=C(N)c1ccc2cc(C(=O)NC3CCC(F)(F)CC3)n(Cc3ccc(-c4ccccc4)cc3)c2c1 [Compound I-235],0 to 25,,
C[C@H](NC(=O)c1cc2ccc(C(=N)N)cc2n1Cc1ccc(C(N)=O)cc1)c1ccc(Cl)cc1 [Compound I-98],,0 to 25,
N=C(N)c1ccc2cc(C(=O)Nc3cccc(F)c3)n(CCS(=O)(=O)c3ccccc3)c2c1 [Compound I-41],,0 to 25,
"N=C(N)NCCCNC(=O)C1CCN(C(=O)c2cc3ccc(C(=N)N)cc3n2Cc2ccc(C(F)(F)F)cc2)CC1 [Compound I-359, 1-(6-Carbamimidoyl-1-(4-(trifluoromethyl)benzyl)-1H-indole-2-carbonyl)-N-(3-guanidinopropyl)-piperidine-4-carboxamide]",25 to 50,,
CSc1cccc(NC(=O)c2cc3ccc(C(=N)N)cc3n2Cc2ccc(C(N)=O)cc2)c1 [Compound I-68],,0 to 25,
N=C(N)c1ccc2cc(C(=O)Nc3cccnc3)n(Cc3ccc(C(N)=O)cc3)c2c1 [Compound I-170],,0 to 25,
N=C(N)c1ccc2cc(C(=O)NCCc3ccccc3)n(Cc3ccc(C(N)=O)cc3)c2c1 [Compound I-81],,0 to 25,
N=C(N)c1ccc2c(Cl)c(C(=O)N[C@H]3CC[C@H](N)CC3)n(Cc3ccc(Oc4ccccc4)cc3)c2c1 [Compound I-251],25 to 50,,
Cc1csc(NC(=O)c2cc3ccc(C(=N)N)cc3n2Cc2ccc(C(N)=O)cc2)n1 [Compound I-266],0 to 25,,
N=C(N)c1ccc2cc(C(=O)Nc3cccc(-c4ccccn4)c3)n(Cc3ccc(C(N)=O)cc3)c2c1 [Compound I-134],,0 to 25,
CC(C)c1ccc(Cn2c(C(=O)NCC3CCCCC3)cc3ccc(C(=N)N)cc32)cc1 [Compound I-16],,0 to 25,
N=C(N)c1ccc2cc(C(=O)N3CCC(F)CC3)n(Cc3ccc(C(=O)NC4CC4)cc3)c2c1 [Compound I-391],0 to 25,,
C[C@H](NC(=O)c1cc2ccc(C(=N)N)cc2n1Cc1ccc(C(N)=O)cc1)c1ccc(F)c(F)c1 [Compound I-94],,0 to 25,
N=C(N)c1ccc2cc(C(=O)NCC3CCCCC3)n(Cc3ccc(C(N)=O)cc3)c2c1 [Compound I-191],,0 to 25,
NCCCC(=O)Nc1ccc(Cn2c(C(=O)N3CCC(CCN)CC3)cc3ccc(/C(N)=N/O)cc32)cc1 [Compound I-384],25 to 50,,
N=C(N)c1ccc2cc(C(=O)N3CCC(CCOCCO)CC3)n(Cc3ccc(C(F)(F)F)cc3)c2c1 [Compound I-287],0 to 25,,
"N=C(N)c1ccc2cc(C(=O)NC3CCC(F)(F)CC3)n(Cc3cccc(NC(=O)CCN)c3)c2c1 [Compound I-260, 1-(3-(3-Aminopropanamido)benzyl)-6-carbamimidoyl-N-(4,4-difluorocyclohexyl)-1H-indole-2-carboxamide]",0 to 25,,
N=C(N)c1ccc2cc(C(=O)N[C@]34CC5CC(C[C@@](O)(C5)C3)C4)n(Cc3ccc(C(N)=O)cc3)c2c1 [Compound I-198],0 to 25,,

# — patent publication US12428415B2, “Matriptase 2 inhibitors and uses thereof” (Disc Medicine, Inc., priority 2018, dated 2025)
